The values below come from patent publication US5925730A, “GnRH antagonists” (Ferring BV, priority 1997, dated 1999).

SMILES strings stand for the structures. Non-standard residues stand in square brackets, D forms with d. Residues, ends and D or L forms follow the SMILES beside them. *: point of attachment. dPhe(4-NHCONH2) = NC(=O)Nc1ccc(C[C@@H](N)C(=O)O)cc1; Phe(4-NHCONH2) = NC(=O)Nc1ccc(C[C@H](N)C(=O)O)cc1; Dihydroorotyl(S) = O=C1C[C@@H](C(=O)*)NC(=O)N1; dPhe(4-NH2) = Nc1ccc(C[C@@H](N)C(=O)O)cc1; dPhe(4-Cl) = N[C@H](Cc1ccc(Cl)cc1)C(=O)O; Phe(4-NH2) = Nc1ccc(C[C@H](N)C(=O)O)cc1; d2Nal = N[C@H](Cc1ccc2ccccc2c1)C(=O)O; Lys(iPr) = CC(C)NCCCC[C@H](N)C(=O)O; d3Pal = N[C@H](Cc1cccnc1)C(=O)O; X1 = O=C1NC[C@@H](C(=O)*)N1

Series [1] is described as follows: water solubility compared with Acyline. It counts as physicochemical.
Another series concerns secretion of LH. Description: in vivo rat LH suppression test (circulating LH levels in castrated male rats after sc injection). Also noted: species or system castrated male Sprague-Dawley rats. As to conditions: 50 micrograms sc. On the procedure: The peptide is assayed in vivo to determine its effectiveness to suppress the secretion of LH in rats. Measurement of circulating LH levels in castrated male Sprague-Dawley rats treated subcutaneously with the peptide is carried out as reported in C. Rivier et al. Biol. Reproduc., 1983, 29, 374-378. The peptides are first dissolved at a concentration of 1.0 or 10 mg/ml in bacteriostatic water and then further diluted in 0.04 M phosphate buffer containing 0.1% BSA. Subsequent dilutions are made in phosphate buffer. The peptides are injected sc into 5 rats, and blood samples (300 μl) are collected under metotane anesthesia. Sera (50 μl) are tested for LH levels in duplicate using reagents provided by the National Pituitary and Hormone Distribution Program of the NIDDK.

Series [2] is described as follows: examination of injected rats for tolerance and gelling at the point of injection. In kind it is in vivo. As to conditions: 50 μg per rat sc.

Consider `CC(=O)Nc1ccc(C[C@@H](NC(=O)[C@H](Cc2ccc(NC(N)=O)cc2)NC(=O)[C@H](CO)NC(=O)[C@@H](Cc2cccnc2)NC(=O)[C@@H](Cc2ccc(Cl)cc2)NC(=O)[C@@H](Cc2ccc3ccccc3c2)NC(C)=O)C(=O)N[C@@H](CC(C)C)C(=O)N[C@@H](CCCCNC(C)C)C(=O)N2CCC[C@H]2C(=O)N[C@H](C)C(N)=O)cc1` [Example 1Q, Ac-β-D-2Nal-D-4Cpa-D-3Pal-Ser-4Aph(carbamoyl)-D-4Aph(Ac)-Leu-Lys(isopropyl)-Pro-D-Ala-NH2] (Ac-[d2Nal][dPhe(4-Cl)][d3Pal]S[Phe(4-NHCONH2)][dPhe(4-NH2)](Ac)L[Lys(iPr)]P[dA]-NH2), for which the “water solubility compared with Acyline” value in series [1] was “more water soluble than Acyline”. For the same compound, the “effectiveness in suppression of LH compared with Acyline, first two days” value with secretion of LH (days 1-2) was “equal to about values of Acyline”. For the same compound, the “suppression of LH compared with Acyline at days 3 and 4 (72 and 96 hours; after the first 2 days)” value with secretion of LH (days 3-4) is reported as “not as effective as Acyline”.

As for `CC(=O)Nc1ccc(C[C@H](NC(=O)[C@H](CO)NC(=O)[C@@H](Cc2cccnc2)NC(=O)[C@@H](Cc2ccc(Cl)cc2)NC(=O)[C@@H](Cc2ccc3ccccc3c2)NC(C)=O)C(=O)N[C@H](Cc2ccc(NC(N)=O)cc2)C(=O)N[C@@H](CC(C)C)C(=O)N[C@@H](CCCCNC(C)C)C(=O)N2CCC[C@H]2C(=O)N[C@H](C)C(N)=O)cc1` [Example 1P, Ac-β-D-2Nal-D-4Cpa-D-3Pal-Ser-4Aph(Ac)-D-4Aph(carbamoyl)-Leu-Lys(isopropyl)-Pro-D-Ala-NH2] (Ac-[d2Nal][dPhe(4-Cl)][d3Pal]S[Phe(4-NH2)](Ac)[dPhe(4-NHCONH2)]L[Lys(iPr)]P[dA]-NH2), in series [1], the “water solubility compared with Acyline” value is “more water soluble than Acyline”. The “duration of bioactivity for the suppression of LH (rating in words)” value in the series with secretion of LH is on record as “long duration”. In the series on secretion of LH (96 hours), the “suppression of LH compared with Acyline at 96 hours / 4 days (after day 3)” value is given as “slightly superior to Acyline”. Besides, the “effectiveness in suppression of LH compared with Acyline, day 1 through day 3” value in the series with secretion of LH (days 1-3) is on record as “substantially the same as Acyline”.

For the compound `CC(=O)Nc1ccc(C[C@@H](NC(=O)[C@H](Cc2ccc(NC(=O)[C@@H]3CNC(=O)N3)cc2)NC(=O)[C@H](CO)NC(=O)[C@@H](Cc2cccnc2)NC(=O)[C@@H](Cc2ccc(Cl)cc2)NC(=O)[C@@H](Cc2ccc3ccccc3c2)NC(C)=O)C(=O)N[C@@H](CC(C)C)C(=O)N[C@@H](CCCCNC(C)C)C(=O)N2CCC[C@H]2C(=O)N[C@H](C)C(N)=O)cc1` [Example 3A] (Ac-[d2Nal][dPhe(4-Cl)][d3Pal]S[Phe(4-NH2)](X1)[dPhe(4-NH2)](Ac)L[Lys(iPr)]P[dA]-NH2), in series [1], the “water solubility compared with Acyline” value is reported as “more water soluble than Acyline”.

Regarding `CC(=O)N[C@H](Cc1ccc2ccccc2c1)C(=O)N[C@H](Cc1ccc(Cl)cc1)C(=O)N[C@H](Cc1cccnc1)C(=O)N[C@@H](CO)C(=O)N[C@@H](Cc1ccc(NC(=O)[C@@H]2CC(=O)NC(=O)N2)cc1)C(=O)N[C@H](Cc1ccc(NC(N)=O)cc1)C(=O)N[C@@H](CC(C)C)C(=O)N[C@@H](CCCCNC(C)C)C(=O)N1CCC[C@H]1C(=O)N[C@H](C)C(N)=O` [Example 1, Ac-D-2Nal-(4Cl)D-Phe-D-3Pal-Ser-4Aph(hydroorotyl)-D-4Aph(carbamoyl)-Leu-Lys(isopropyl)-Pro-D-Ala-NH2] (Ac-[d2Nal][dPhe(4-Cl)][d3Pal]S[Phe(4-NH2)](Dihydroorotyl(S))[dPhe(4-NHCONH2)]L[Lys(iPr)]P[dA]-NH2), in series [2], the “gelling at the point of injection” value is on record as “no significant gelling” and the “tolerance of the peptide in injected rats” value is on record as “very well tolerated”.
